Where two headings read alike, the source gives them in different places.
Columns and labels:
Type in all cases: biochemical
Factor Xa = target: T1, Factor Xa (Homo sapiens, UniProt P00742); experiment: In vitro inhibition of purified factor Xa (hydrolysis of Bz-Ile-Glu-Gly-Arg-pNa); conditions: purified enzyme, 10 nM factor Xa, 26 μM substrate, pH 7.5, 37° C.
T1 construct: purchased Enzyme Research Laboratories, Inc
Description: (§1) The ability of the compounds of the present invention to act as inhibitors of thrombin, factor Xa and plasmin catalytic activity was assessed by determining the concentration that inhibited enzyme activity by 50% using purified human enzymes. The concentration of added inhibitor that caused a 50% decrease in the initial rate of hydrolysis was defined as the IC50 value.
(§2) All assays are based on the ability of the test compound to inhibit the hydrolysis of a peptide p-nitroanilide substrate. In a typical experiment, appropriate substrate is prepared in DMSO, and diluted into an assay buffer consisting of 50 mM HEPES and 130 mM NaCl at a pH of 7.5. The final concentration for each of the substrates is listed below. All substrate concentrations are at least 10 fold lower than Km to insure inhibition is competitive. Test compounds are prepared as 1 mg/mL solutions in DMSO, and three additional 10-fold dilutions in DMSO are prepared. Enzyme solutions are prepared at the concentrations listed below in assay buffer.
(§3) In a typical IC50 determination, into each well of a 96 well plate is pipetted 280 μL of substrate solution, 10 μL of inhibitor solution, and the plate is allowed to thermally equilibrate at 37° C. in a Molecular Devices Plate Reader for at least 10 minutes. Reactions are initiated by the addition of a 20 μL aliquot of enzyme, and the absorbance increase at 405 nm is recorded for 15 minutes. Data corresponding to less than 10% of the total substrate hydrolysis is used in the calculations. The ratio of the velocity (rate of the change in absorbance as a function of time) for a sample containing no inhibitor is divided by the velocity of a sample containing inhibitor, and is plotted as a function of inhibitor concentration. The inverse of the slope is the concentration of inhibitor which produces a 50% decrease in activity of the enzyme. This concentration is referred to as the IC50.
Factor Xa activity was assessed as the ability to hydrolyze the substrate Bz-Ile-Glu-Gly-Arg-pNa, and was obtained from Sigma. Substrate solutions were prepared at a concentration of 26 μM (26 μM<<Km =1.3 mM) in assay buffer. Final DMSO concentration was 0.3%. Activated factor Xa was obtained from Enzyme Research Laboratories, Inc., and was diluted into assay buffer to a concentration of 1.2 μM. Final reagent concentrations were: [Factor Xa]=10 nM, [Bz-Ile-Glu-Gly-Arg-pNa]=26 μM, [inhibitor]=60to 0.06 μM.

human plasmin = human plasmin (Homo sapiens, UniProt P00747); experiment: In vitro inhibition of purified plasmin (hydrolysis of Tos-Gly-Pro-Lys-pNa); conditions: for inhibition at 60 µM: at 60 μM inhibitor
human plasmin, sequence (P00747 581-810 limits assumed): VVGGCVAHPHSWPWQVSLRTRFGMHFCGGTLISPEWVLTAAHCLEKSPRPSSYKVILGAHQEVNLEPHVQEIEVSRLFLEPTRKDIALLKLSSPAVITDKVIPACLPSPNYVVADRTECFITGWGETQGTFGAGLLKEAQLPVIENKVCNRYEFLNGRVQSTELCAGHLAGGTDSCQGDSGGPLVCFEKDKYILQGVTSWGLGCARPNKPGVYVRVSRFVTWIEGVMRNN
human plasmin, sequence (P00747 97-580 partner limits assumed): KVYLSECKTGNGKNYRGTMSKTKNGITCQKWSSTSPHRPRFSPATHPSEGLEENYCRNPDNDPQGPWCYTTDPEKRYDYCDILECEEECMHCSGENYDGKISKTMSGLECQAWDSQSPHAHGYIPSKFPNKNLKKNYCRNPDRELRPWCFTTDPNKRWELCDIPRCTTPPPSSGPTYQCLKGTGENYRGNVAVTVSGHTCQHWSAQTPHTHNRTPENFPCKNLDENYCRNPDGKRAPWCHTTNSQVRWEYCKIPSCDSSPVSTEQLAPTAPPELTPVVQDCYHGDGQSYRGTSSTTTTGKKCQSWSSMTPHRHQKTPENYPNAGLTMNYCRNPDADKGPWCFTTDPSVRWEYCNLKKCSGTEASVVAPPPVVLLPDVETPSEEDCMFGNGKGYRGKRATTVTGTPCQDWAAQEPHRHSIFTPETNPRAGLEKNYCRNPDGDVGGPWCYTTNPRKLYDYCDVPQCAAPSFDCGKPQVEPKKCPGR
Description: as §1, §2, §3
Plasmin activity was assessed as the ability to hydrolyze the substrate Tos-Gly-Pro-Lys-pNa, and was obtained from Sigma. Substrate solutions were prepared at a concentration of 22 μM (22 μM<<Km =240 μM) in assay buffer. Final DMSO concentration was 0.3%. Purified human plasmin was obtained from Enzyme Research Laboratories Inc, and was diluted into assay buffer to a concentration of 1.2 μM. Final reagent concentrations were: [plasmin]=15 nM, […], [inhibitor]=60 to 0.06 μM.

human α-thrombin = human α-thrombin (Homo sapiens, UniProt P00734); experiment: In vitro inhibition of purified thrombin (hydrolysis of Bz-Phe-Val-Arg-pNa); conditions: for IC50: purified human α-thrombin 36 nM, pH 7.5, 37° C.; for inhibition at 60 µM: at 60 μM inhibitor
Description: as §1, §2, §3
Thrombin activity was assessed as the ability to hydrolyze the substrate N-benzoyl-Phe-Val-Arg-p-nitroanilide (Bz-Phe-Val-Arg-pNa), and was obtained from Sigma Chemical Company (St. Louis, Mo.). Substrate solutions were prepared at a concentration of 60 μM (60 μM<<Km =1.2 mM) in assay buffer. Final DMSO concentration was 0.3%. […] Final reagent concentrations were: [thrombin]=36 nM, [Bz-Phe-Val-Arg-pNa]=[…], [inhibitor]=60 to 0.06 μM.

[1] = purified human plasmin 15 nM, pH 7.5, 37° C., read-out: Plasmin Inhibition (IC50)

T1 sequence (P00742 235-488 limits assumed): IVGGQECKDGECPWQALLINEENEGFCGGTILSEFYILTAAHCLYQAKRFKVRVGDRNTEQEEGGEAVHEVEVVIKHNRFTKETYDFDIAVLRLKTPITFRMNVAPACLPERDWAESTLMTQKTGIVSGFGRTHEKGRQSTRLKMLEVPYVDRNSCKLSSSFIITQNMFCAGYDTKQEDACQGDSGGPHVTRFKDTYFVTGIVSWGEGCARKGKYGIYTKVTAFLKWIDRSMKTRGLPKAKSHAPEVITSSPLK
T1 sequence (P00742 41-179 partner limits assumed): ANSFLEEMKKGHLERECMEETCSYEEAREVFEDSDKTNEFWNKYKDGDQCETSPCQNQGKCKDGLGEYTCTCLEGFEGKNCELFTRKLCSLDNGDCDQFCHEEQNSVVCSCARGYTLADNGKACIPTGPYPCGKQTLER

Structure (SMILES) | IC50 (Factor Xa) [µM] | IC50 (human plasmin) [µM] | IC50 (human α-thrombin) [µM] | inhibition at 60 µM (human plasmin) [%] | IC50 (human plasmin; [1]) [µM] | inhibition at 60 µM (human α-thrombin) [%]
O=C(NCC(O)c1cccc(O)c1)c1cccc(NS(=O)(=O)c2ccc3ccccc3c2)c1 (stereo not drawn) [Compound 14, 3-[(2-Naphthalenylsulfonyl)amino]-N-[2-hydroxy-2-(3'-hydroxyphenyl)ethyl]benzamide] | 11.4 | 86.1 | 87 | – | – | –
COc1cc(C(O)CNC(=O)c2cccc(NS(=O)(=O)c3ccccc3)c2)ccc1O (stereo not drawn) [Compound 22, 3-[(Phenylsulfonyl)amino]-N-[2-hydroxy-2-(4'-hydroxy-3'-methoxyphenyl)ethyl]benzamide] | 20.8 | – | 38.3 | 0 | – | –
O=C(NCCc1ccccn1)c1cccc(NS(=O)(=O)c2ccc3ccccc3c2)c1 [Compound 27] | 2 | – | 294 | 0 | – | –
NCCCCCNC(=O)c1cccc(NS(=O)(=O)c2ccc3ccccc3c2)c1 [Compound 32, 3-[(2-Naphthalenylsulfonyl)amino]-N-(5-aminopentyl)benzamide] | 7.6 | – | – | 0 | – | 0

Other lines, results leading:

IC50 (Factor Xa) [µM] | IC50 (human plasmin) [µM] | IC50 (human α-thrombin) [µM] | inhibition at 60 µM (human plasmin) [%] | IC50 (human plasmin; [1]) [µM] | inhibition at 60 µM (human α-thrombin) [%] | Structure (SMILES)
3.2 | – | 52.8 | 0 | – | – | CN(C)c1ccc(CNC(=O)c2cccc(NS(=O)(=O)c3ccc4ccccc4c3)c2)cc1 [Compound 16]
19.2 | – | – | – | 5.8 | 0 | COc1cc(CNC(=O)c2cccc(NS(=O)(=O)c3ccccc3)c2)ccc1O [Compound 20, 3-[(Phenylsulfonyl)amino]-N-[(4-hydroxy-3-methoxyphenyl)methyl]benzamide]
16.5 | – | – | – | 15.2 | 0 | CN(C)c1ccc(CNC(=O)c2cccc(NS(=O)(=O)c3cccc(N)c3)c2)cc1 [Compound 31, 3-[(3'-Aminophenylsulfonyl)amino]-N-[4'-[(N', N'-dimethylamino)phenyl]methyl]benzamide]

Source: patent publication US5741819A, “Arylsulfonylaminobenzene derivatives and the use thereof as factor Xa inhibitors” (3-Dimensional Pharmaceuticals, Inc., priority 1995, dated 1998)
